Experimental data taken from patent US8772283B2, “Imidazo-oxazine compound or salt thereof” (Taiho Pharmaceutical Co., Ltd., priority 2011, dated 2014).
Structures can show the parent of a compound that is named as a salt.

Tests used:
human AKT2 = human AKT2 (Homo sapiens (Human), UniProt P31751); test: AKT2 kinase activity inhibition (TR-FRET, biotinylated Crosstide substrate); assay type: biochemical; conditions: preincubation 120 min at 25° C.; ATP 150 μM; Crosstide 500 nM
Procedure: (§1) Preparation of AKT1 and AKT2 and measurement of in vitro inhibitory activity of the above-mentioned compounds against AKT1 and AKT2 kinase activity were carried out with reference to the method disclosed in Biochem. J. Vol. 385, pp 399-408 (2005). In the preparation of AKT1 and AKT2, human AKT1 and AKT2 to which a middle T antigen tag was added were expressed in Sf 9 insect cells, and then AKT1 and AKT2 were prepared following affinity purification and activation by PDK1. The prepared AKT1 and AKT2 were stored at −80° C. until the time of measurement of inhibitory activity of the compounds. In the measurement of inhibitory activity of the compounds, AKT1 or AKT2 and each compound of the present invention were preincubated at 25° C. for 120 minutes in a buffer solution for reaction (15 mM Tris-HCl pH 7.5, 0.01% Tween-20, 2 mM DTT). As a substrate, biotinylated Crosstide (bioton-KGSGSGRPRTSSFAEG), MgCl2, and ATP were added to final concentrations of 500 nM, 10 mM, and 150 μM, respectively, and reactions were carried out at 25° C. for 60 minutes. The reactions were stopped by adding EDTA to a final concentration of 80 mM. Then, a detection liquid in which an Eu-labeled anti-phosphorylation Crosstide antibody (PerkinElmer) and SureLight APC-SA (PerkinElmer) were contained at a final concentration of 0.5 nM and […], respectively, was added, and reactions were carried out at room temperature for 2 hours. Finally, the amount of fluorescence at the time of irradiation of excitation light having a wavelength of 337 nm was measured at dual wavelengths of 620 nm and 665 nm by PHERAstar FS (BMG LABTECH). The amount of phosphorylation was determined from the ratio of the fluorescence amounts at the dual wavelengths. The compound concentration at which phosphorylation can be inhibited by 50% was defined as […] (nM), and the results are shown in Table 4 below.

human AKT1 = human AKT1 (Homo sapiens (Human), UniProt P31749); test: AKT1 kinase activity inhibition (TR-FRET, biotinylated Crosstide substrate); assay type: biochemical; conditions: preincubation 120 min at 25° C.; ATP 150 μM; Crosstide 500 nM
Procedure: as §1

Sequence of human AKT2 (P31751 whole entry): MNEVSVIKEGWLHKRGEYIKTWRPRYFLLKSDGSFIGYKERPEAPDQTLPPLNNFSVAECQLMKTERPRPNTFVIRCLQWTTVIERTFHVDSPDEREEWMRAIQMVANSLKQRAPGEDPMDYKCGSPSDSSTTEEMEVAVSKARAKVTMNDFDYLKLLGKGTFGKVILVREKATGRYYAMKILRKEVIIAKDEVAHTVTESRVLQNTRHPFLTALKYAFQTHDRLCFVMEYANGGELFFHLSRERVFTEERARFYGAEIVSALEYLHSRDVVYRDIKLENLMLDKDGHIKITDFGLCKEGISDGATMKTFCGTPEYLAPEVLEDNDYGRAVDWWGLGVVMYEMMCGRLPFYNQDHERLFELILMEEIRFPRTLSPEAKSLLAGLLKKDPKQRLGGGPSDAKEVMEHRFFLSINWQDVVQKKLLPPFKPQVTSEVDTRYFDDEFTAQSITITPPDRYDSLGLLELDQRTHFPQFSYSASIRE
Sequence of human AKT1 (P31749 whole entry): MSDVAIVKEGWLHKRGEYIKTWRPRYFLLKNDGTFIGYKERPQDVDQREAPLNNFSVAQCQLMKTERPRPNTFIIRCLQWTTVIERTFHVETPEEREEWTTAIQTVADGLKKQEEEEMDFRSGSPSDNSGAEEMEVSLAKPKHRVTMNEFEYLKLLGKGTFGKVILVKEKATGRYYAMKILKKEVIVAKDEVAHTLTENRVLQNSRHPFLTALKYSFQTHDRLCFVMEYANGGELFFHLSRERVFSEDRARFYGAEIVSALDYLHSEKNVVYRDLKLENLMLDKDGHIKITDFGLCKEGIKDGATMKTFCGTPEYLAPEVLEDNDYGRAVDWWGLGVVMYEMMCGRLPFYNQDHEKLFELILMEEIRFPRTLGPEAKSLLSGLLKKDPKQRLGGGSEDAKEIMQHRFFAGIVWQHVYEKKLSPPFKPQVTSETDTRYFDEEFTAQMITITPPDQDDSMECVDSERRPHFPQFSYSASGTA

IC50 (human AKT2) [nM] | IC50 (human AKT1) [nM] | Compound
0.31 | 1.8 | CCNC(=O)c1ccc2c(c1)-c1nc(-c3ccc(C4(N)CC(C)(O)C4)cc3)c(-c3ccccc3)n1CO2 (stereo not drawn) [Example 55, 2-(4-(trans-1-amino-3-hydroxy-3-methylcyclobutyl)phenyl)-N-ethyl-3-phenyl-5H-benzo[e]imidazo[1,2-c][1,3]oxazine-9-carboxamide]
6.5 | 51 | NC1(c2ccc(-c3nc4n(c3-c3ccncc3)COc3ccccc3-4)cc2)CCC1 [Example 15, 1-(4-(3-(pyridin-4-yl)-5H-benzo[e]imidazo[1,2-c][1,3]oxazin-2-yl)phenyl)cyclobutanamine]
3.5 | 15 | CN(C)C(=O)c1ccc2c(c1)OCn1c-2nc(-c2ccc(C3(N)CC(C)(O)C3)cc2)c1-c1ccccc1 (stereo not drawn) [Example 57, 2-(4-(trans-1-amino-3-hydroxy-3-methylcyclobutyl)phenyl)-N,N-dimethyl-3-phenyl-5H-benzo[e]imidazo[1,2-c][1,3]oxazine-8-carboxamide]
1.7 | 28 | CCOc1cccc2c1-c1nc(-c3ccc(C4(N)CC(O)(C5CC5)C4)cc3)c(-c3ccccc3)n1CO2 (stereo not drawn) [Example 23, trans-3-amino-1-cyclopropyl-3-(4-(10-ethoxy-3-phenyl-5H-benzo[e]imidazo[1,2-c][1,3]oxazin-2-yl)phenyl)cyclobutanol]
1.1 | 5.5 | NC1(c2ccc(-c3nc4n(c3-c3ccccc3)COc3cnccc3-4)cc2)CCC1 [Example 37, 1-(4-(3-phenyl-5H-imidazo[1,2-c]pyrido[4,3-e][1,3]oxazin-2-yl)phenyl)cyclobutanamine]
0.4 | 1.3 | CC1(O)CC(N)(c2ccc(-c3nc4n(c3-c3ccccc3)COc3cc(C(N)=O)ccc3-4)cc2)C1 (stereo not drawn) [Example 62, 2-(4-(trans-1-amino-3-hydroxy-3-methylcyclobutyl)phenyl)-3-phenyl-5H-benzo[e]imidazo[1,2-c][1,3]oxazine-8-carboxamide]
1.6 | 3.9 | NC1(c2ccc(-c3nc4n(c3-c3ccccc3)COc3ncccc3-4)cc2)CCC1 [Example 40, 1-(4-(3-phenyl-5H-imidazo[1,2-c]pyrido[3,2-e][1,3]oxazin-2-yl)phenyl)cyclobutanamine]
0.91 | 5 | CC1(O)CC(N)(c2ccc(-c3nc4n(c3-c3ccccc3)COc3ccc(C(=O)O)cc3-4)cc2)C1 (stereo not drawn) [Example 63, 2-(4-(trans-1-amino-3-hydroxy-3-methylcyclobutyl)phenyl)-3-phenyl-5H-benzo[e]imidazo[1,2-c][1,3]oxazine-9-carboxylic acid hydrochloride]
0.7 | 3.1 | CC1(O)CC(N)(c2ccc(-c3nc4n(c3-c3ccccc3)COc3cc(C(=O)NCCO)ccc3-4)cc2)C1 (stereo not drawn) [Example 58, 2-(4-(trans-1-amino-3-hydroxy-3-methylcyclobutyl)phenyl)-N-(2-hydroxyethyl)-3-phenyl-5H-benzo[e]imidazo[1,2-c][1,3]oxazine-8-carboxamide]
1.3 | 4.4 | CN(C)C(=O)c1ccc2c(c1)-c1nc(-c3ccc(C4(N)CC(C)(O)C4)cc3)c(-c3ccccc3)n1CO2 (stereo not drawn) [Example 54, 2-(4-(trans-1-amino-3-hydroxy-3-methylcyclobutyl)phenyl)-N,N-dimethyl-3-phenyl-5H-benzo[e]imidazo[1,2-c][1,3]oxazine-9-carboxamide]
5.4 | 27 | NC1(c2ccc(-c3nc4n(c3-c3ccsc3)COc3ccccc3-4)cc2)CCC1 [Example 14, 1-(4-(3-(thiophen-3-yl)-5H-benzo[e]imidazo[1,2-c][1,3]oxazin-2-yl)phenyl)cyclobutanamine]
0.94 | 3.1 | CC1(O)CC(N)(c2ccc(-c3nc4n(c3-c3ccccc3)COc3cc(C(=O)O)ccc3-4)cc2)C1 (stereo not drawn) [Example 64, 2-(4-(trans-1-amino-3-hydroxy-3-methylcyclobutyl)phenyl)-3-phenyl-5H-benzo[e]imidazo[1,2-c][1,3]oxazine-8-carboxylic acid hydrochloride]
1 | 6.4 | CC1(O)CC(N)(c2ccc(-c3nc4n(c3-c3ccccc3)COc3ccc(F)cc3-4)cc2)C1 (stereo not drawn) [Example 8, trans-3-amino-3-(4-(9-fluoro-3-phenyl-5H-benzo[e]imidazo[1,2-c][1,3]oxazin-2-yl)phenyl)-1-methylcyclobutanol]
0.57 | 2.4 | CC1(O)CC(N)(c2ccc(-c3nc4n(c3-c3ccccc3)COc3ccc(C(=O)NCCO)cc3-4)cc2)C1 (stereo not drawn) [Example 60, 2-(4-(trans-1-amino-3-hydroxy-3-methylcyclobutyl)phenyl)-N-(2-hydroxyethyl)-3-phenyl-5H-benzo[e]imidazo[1,2-c][1,3]oxazine-9-carboxamide]
4 | 35 | NC1(c2ccc(-c3nc4n(c3-c3ccccc3)COc3cccnc3-4)cc2)CCC1 [Example 29, 1-(4-(3-phenyl-5H-imidazo[1,2-c]pyrido[2,3-e][1,3]oxazin-2-yl)phenyl)cyclobutanamine]

Further lines, the molecule ahead of its results:

Compound | IC50 (human AKT2) [nM] | IC50 (human AKT1) [nM]
CNC(=O)c1ccc2c(c1)-c1nc(-c3ccc([C@]4(N)C[C@](C)(O)C4)cc3)c(-c3ccccc3)n1CO2 [Example 52, 2-(4-(trans-1-amino-3-hydroxy-3-methylcyclobutyl)phenyl)-N-methyl-3-phenyl-5H-benzo[e]imidazo[1,2-c][1,3]oxazine-9-carboxamide] | 0.28 | 1.5
COc1ccc2c(c1)OCn1c-2nc(-c2ccc(C3(N)CC(C)(O)C3)cc2)c1-c1ccccc1 (stereo not drawn) [Example 21, trans-3-amino-3-(4-(8-methoxy-3-phenyl-5H-benzo[e]imidazo[1,2-c][1,3]oxazin-2-yl)phenyl)-1-methylcyclobutanol] | 0.91 | 6
NC1(c2ccc(-c3nc4n(c3-c3ccsc3)COc3cccc(F)c3-4)cc2)CC(O)(C2CC2)C1 (stereo not drawn) [Example 4, trans-3-amino-1-cyclopropyl-3-(4-(10-fluoro-3-(thiophen-3-yl)-5H-benzo[e]imidazo[1,2-c][1,3]oxazin-2-yl)phenyl)cyclobutanol] | 0.71 | 7.1
CCOc1cccc2c1-c1nc(-c3ccc(C4(N)CC(C)(O)C4)cc3)c(-c3ccccc3)n1CO2 (stereo not drawn) [Example 24, trans-3-amino-3-(4-(10-ethoxy-3-phenyl-5H-benzo[e]imidazo[1,2-c][1,3]oxazin-2-yl)phenyl)-1-methylcyclobutanol] | 1.8 | 30
COc1cc(OC)c2c(c1)OCn1c-2nc(-c2ccc(C3(N)CC(O)(C4CC4)C3)cc2)c1-c1ccccc1 (stereo not drawn) [Example 25, trans-3-amino-1-cyclopropyl-3-(4-(8,10-dimethoxy-3-phenyl-5H-benzo[e]imidazo[1,2-c][1,3]oxazin-2-yl)phenyl)cyclobutanol] | 0.27 | 12
C[C@]1(O)C[C@@](N)(c2ccc(-c3nc4n(c3-c3ccccc3)COc3ccccc3-4)cc2)C1 [Example 12, trans-3-amino-1-methyl-3-(4-(3-phenyl-5H-benzo[e]imidazo[1,2-c][1,3]oxazin-2-yl)phenyl)cyclobutanol] | 1.7 | 5.3
CC1(O)CC(N)(c2ccc(-c3nc4n(c3-c3ccccc3)COc3ccc(C(N)=O)cc3-4)cc2)C1 (stereo not drawn) [Example 53, 2-(4-(trans-1-amino-3-hydroxy-3-methylcyclobutyl)phenyl)-3-phenyl-5H-benzo[e]imidazo[1,2-c][1,3]oxazine-9-carboxamide] | 0.26 | 1.6
CC1(O)CC(N)(c2ccc(-c3nc4n(c3-c3ccccc3)COc3cccc(F)c3-4)cc2)C1 (stereo not drawn) [Example 2, trans-3-amino-3-(4-(10-fluoro-3-phenyl-5H-benzo[e]imidazo[1,2-c][1,3]oxazin-2-yl)phenyl)-1-methylcyclobutanol] | 0.5 | 4.6
CC1(O)CC(N)(c2ccc(-c3nc4n(c3-c3ccccc3)COc3ncccc3-4)cc2)C1 (stereo not drawn) [Example 39, trans-3-amino-1-methyl-3-(4-(3-phenyl-5H-imidazo[1,2-c]pyrido[3,2-e][1,3]oxazin-2-yl)phenyl)cyclobutanol] | 0.97 | 1.4
CCC1(O)CC(N)(c2ccc(-c3nc4n(c3-c3ccccc3)COc3nccnc3-4)cc2)C1 (stereo not drawn) [Example 43, trans-3-amino-1-ethyl-3-(4-(3-phenyl-5H-imidazo[1,2-c]pyrazino[2,3-e][1,3]oxazin-2-yl)phenyl)cyclobutanol] | 7 | 8
Cc1cccc2c1OCn1c-2nc(-c2ccc([C@]3(N)C[C@@](O)(C4CC4)C3)cc2)c1-c1ccccc1 [Example 26, trans-3-amino-1-cyclopropyl-3-(4-(7-methyl-3-phenyl-5H-benzo[e]imidazo[1,2-c][1,3]oxazin-2-yl)phenyl)cyclobutanol] | 1.5 | 26
